Measurements taken from the NIST ThermoML archive (doi:10.1016/j.jct.2012.07.015).
± gives the expanded uncertainty stated by the source.

How the values were obtained:
[1] = for viscosity / mass density: 101.33 kPa; for viscosity / mass density / surface tension liquid-gas: Liquid; for mass density: Vibrating tube method
[2] = Molar enthalpy of transition or fusion; conditions: Crystal; DSC
[3] = molar heat capacity at constant pressure; conditions: 101.33 kPa, Liquid, Small sample (50 mg) DSC

CCCCCC[n+]1ccc(C#N)cc1.O=S(=O)([N-]S(=O)(=O)C(F)(F)F)C(F)(F)F [1-hexyl-4-cyanopyridinium bis(trifluoromethylsulfonyl)imide]
Conditions | Glass transition temperature [°C] | mass density [kg/m3] | molar heat capacity at constant pressure [J/K/mol] | surface tension liquid-gas [mN/m] | viscosity [mPa·s]
[1], 293.15 K | – | 1411.6 ± 1.8 | – | – | 1065.6 ± 130
[1], 298.15 K | – | 1407.1 ± 1.8 | – | 30.6 ± 0.92 | 704.2 ± 76
[1], 303.15 K | – | 1402.6 ± 1.8 | – | – | 481.8 ± 44
[1], 308.15 K | – | 1398.1 ± 1.8 | – | 30.25 ± 0.91 | 340.3 ± 27
[1], 313.15 K | – | 1393.6 ± 1.8 | – | – | 235.8 ± 15
[1], 318.15 K | – | 1389.1 ± 1.7 | – | 29.89 ± 0.9 | 175.4 ± 9.1
[1], 323.15 K | – | 1384.8 ± 1.7 | – | – | 133.3 ± 5.5
[1], 328.15 K | – | 1380.5 ± 1.7 | – | 29.48 ± 0.89 | 103.3 ± 3.2
[1], 333.15 K | – | 1376.1 ± 1.7 | – | – | 81.7 ± 1.8
[1], 338.15 K | – | 1371.8 ± 1.7 | – | 29.01 ± 0.88 | 65.6 ± 1
[1], 343.15 K | – | 1367.5 ± 1.7 | – | – | 53.5 ± 0.6
[1], 348.15 K | – | 1363.2 ± 1.7 | – | – | 44.3 ± 0.6
[1], 353.15 K | – | 1358.9 ± 1.7 | – | – | 37.2 ± 0.5
[1], 358.15 K | – | 1354.6 ± 1.7 | – | – | 31.5 ± 0.4
[1], 363.15 K | – | 1350.3 ± 1.6 | – | – | 26.9 ± 0.4
[1], DTA | -51.9 ± 2 | – | – | – | –
[3], 298.15 K | – | – | 633 ± 64 | – | –
[3], 323.15 K | – | – | 643 ± 65 | – | –
[3], 353.15 K | – | – | 652 ± 66 | – | –

Conditions | Triple point temperature [K]
[1], Crystal, DTA | 280.2 ± 1.1

Conditions | Molar enthalpy of transition or fusion [kcal/mol]
[2] | 4.5 ± 0.139

CCCC[n+]1cccc(C#N)c1.O=S(=O)([N-]S(=O)(=O)C(F)(F)F)C(F)(F)F [1-butyl-3-cyanopyridinium bis(trifluoromethylsulfonyl)imide]
Conditions | Glass transition temperature [°C] | mass density [kg/m3] | molar heat capacity at constant pressure [J/K/mol] | surface tension liquid-gas [mN/m] | viscosity [mPa·s]
[1], 293.15 K | – | 1483.2 ± 12 | – | – | 1546.7 ± 220
[1], 298.15 K | – | 1478.7 ± 12 | – | 32 ± 1.2 | 983.7 ± 120
[1], 303.15 K | – | 1474.2 ± 12 | – | – | 659.7 ± 71
[1], 308.15 K | – | 1469.7 ± 12 | – | 31.77 ± 1.2 | 485.1 ± 46
[1], 313.15 K | – | 1465.3 ± 12 | – | – | 327.5 ± 26
[1], 318.15 K | – | 1460.8 ± 12 | – | 31.59 ± 1.2 | 240.7 ± 16
[1], 323.15 K | – | 1456.3 ± 12 | – | – | 182.6 ± 11
[1], 328.15 K | – | 1452 ± 12 | – | 31.39 ± 1.2 | 140.5 ± 6.9
[1], 333.15 K | – | 1447.7 ± 12 | – | – | 110.1 ± 4.5
[1], 338.15 K | – | 1443.4 ± 11 | – | 31.09 ± 1.2 | 87.9 ± 3
[1], 343.15 K | – | 1439.1 ± 11 | – | – | 67.6 ± 1.9
[1], 348.15 K | – | 1434.8 ± 11 | – | – | 55.3 ± 1.4
[1], 353.15 K | – | 1430.5 ± 11 | – | – | 45.8 ± 1.2
[1], 358.15 K | – | 1426.3 ± 11 | – | – | 38.5 ± 1
[1], 363.15 K | – | 1422 ± 11 | – | – | 32.8 ± 0.9
[1], DTA | -54.4 ± 2 | – | – | – | –
[3], 298.15 K | – | – | 586 ± 59 | – | –
[3], 323.15 K | – | – | 596 ± 60 | – | –
[3], 353.15 K | – | – | 605 ± 61 | – | –
